Source: the Deep4Chem optical property database
Values belong to the compound of their own block, whether it stands above or below them.

Assay: solvent given as SMILES
[1] = in c1cc(-c2cccc(-n3c4ccccc4c4ccccc43)c2)cc(-n2c3ccccc3c3ccccc32)c1
[2] = in c1cc(-n2c3ccccc3c3ccccc32)cc(-n2c3ccccc3c3ccccc32)c1

Structure (SMILES): COc1cnc(-c2cc[n+](C3=C(F)C(F)(F)C(F)(F)[C-]3F)cc2)s1
- fluorescence lifetime (in CC#N): 2.3 ns
- fluorescence lifetime (in CC(C)=O): 2.3 ns
- fluorescence lifetime (in CCO): 1.04 ns
- fluorescence lifetime (in CN(C)C=O): 0.41 ns
- fluorescence lifetime (in CO): 0.54 ns
- fluorescence lifetime (in CS(C)=O): 0.22 ns
- fluorescence lifetime (in ClC(Cl)Cl): 2.85 ns
- fluorescence lifetime (in ClCCl): 2.81 ns

Structure (SMILES): C[n+]1ccc(-c2cc[n+](C)cc2)cc1
- fluorescence lifetime (in CC#N): 0.9 ns

Structure (SMILES): COc1ccc(N(c2ccc(OC)cc2)c2ccc(-c3ccc4c(c3)C(=O)c3ccccc3C4=O)cc2)cc1
- fluorescence lifetime (in CCCCCC): 7.04 ns
- fluorescence lifetime (in Cc1ccccc1): 1.09 ns
- fluorescence lifetime (in ClC(Cl)(Cl)Cl): 5.94 ns

Structure (SMILES): Nc1ncc2nc[nH]c2n1
- fluorescence lifetime (in O): 11.3 ns

Structure (SMILES): CCCCCCCCCCCCN1C(=O)c2ccc3c4ccc5c6c(ccc(c7ccc(c2c37)C1=O)c64)C(=O)NC5=O
- fluorescence lifetime (in CN(C)C=O): 3 ns

Structure (SMILES): CC(=O)OC[C@@H]1O[C@H](N2C=CC3=Nc4nc(C)[n+](C)cc4CN3C2=O)[C@@H](O)[C@H]1O
- fluorescence lifetime (in CC#N): 3.92 ns
- fluorescence lifetime (in O): 1.04 ns

Structure (SMILES): COc1cc(/C=C2/SC(=O)NC2=O)cc(OC)c1O
- fluorescence lifetime (in C1CCCCC1): 0.941 ns
- fluorescence lifetime (in C1COCCO1): 1.44 ns
- fluorescence lifetime (in CC#N): 0.521 ns
- fluorescence lifetime (in CN(C)C=O): 4.47 ns
- fluorescence lifetime (in CO): 0.39 ns
- fluorescence lifetime (in O): 0.34 ns
- fluorescence lifetime (in OCC(O)CO): 4.92 ns
- fluorescence lifetime (in OCCO): 2.25 ns

Structure (SMILES): CC1=C(c2cccs2)C(C)=[N+]2C1=C(c1ccc(O)cc1)c1c(C)c(-c3cccs3)c(C)n1[B-]2(F)F
- fluorescence lifetime (in Cc1ccccc1): 3.8 ns

Structure (SMILES): CC(=O)c1ccc(-c2nc3ccc(N(C)C)c(Br)c3s2)cc1
- fluorescence lifetime (in C1CCCCC1): 0.1 ns

Structure (SMILES): COC(=O)C(Cc1ccc2oc(-c3ccc4c(c3)c3ccccc3n4-c3ccccc3)nc2c1)NC(=O)OC(C)(C)C (stereo unspecified)
- fluorescence lifetime (in C1CCCCC1): 2.29 ns
- fluorescence lifetime (in C1CCOC1): 1.73 ns
- fluorescence lifetime (in C1COCCO1): 1.96 ns
- fluorescence lifetime (in CC1CCCO1): 1.83 ns
- fluorescence lifetime (in CC1COC(=O)O1): 1.83 ns
- fluorescence lifetime (in CC#N): 1.77 ns
- fluorescence lifetime (in CC(C)=O): 1.75 ns
- fluorescence lifetime (in CC(C)CC(C)(C)C): 2.22 ns
- fluorescence lifetime (in CC(C)CO): 1.55 ns
- fluorescence lifetime (in CC(C)O): 1.57 ns
- fluorescence lifetime (in CC(C)OC(C)C): 1.66 ns
- fluorescence lifetime (in CC(O)CO): 1.74 ns
- fluorescence lifetime (in CCC(C)CC): 2.25 ns
- fluorescence lifetime (in CCCCC): 2.66 ns
- fluorescence lifetime (in CCCCCC): 2.23 ns
- fluorescence lifetime (in CCCCCCCCC): 2.3 ns
- fluorescence lifetime (in CCCCCCCCCC): 2.33 ns
- fluorescence lifetime (in CCCCCCCO): 1.55 ns
- fluorescence lifetime (in CCCCCCO): 1.56 ns
- fluorescence lifetime (in CCCCCO): 1.54 ns
- fluorescence lifetime (in CCCCO): 1.54 ns
- fluorescence lifetime (in CCO): 1.66 ns
- fluorescence lifetime (in CCOC(C)=O): 1.87 ns
- fluorescence lifetime (in CCOCC): 2.13 ns
- fluorescence lifetime (in CN(C)C=O): 1.73 ns
- fluorescence lifetime (in CO): 1.72 ns
- fluorescence lifetime (in COCCOC): 1.2 ns
- fluorescence lifetime (in CS(C)=O): 1.69 ns
- fluorescence lifetime (in Cc1ccccc1): 1.66 ns
- fluorescence lifetime (in Cc1ccccc1C): 1.76 ns
- fluorescence lifetime (in ClC(Cl)Cl): 1.32 ns
- fluorescence lifetime (in ClCCl): 1.5 ns
- fluorescence lifetime (in NC=O): 1.86 ns
- fluorescence lifetime (in OC1CCCCC1): 1.58 ns
- fluorescence lifetime (in OCCO): 1.84 ns
- fluorescence lifetime (in c1ccccc1): 1.67 ns

Structure (SMILES): F[B-]1(F)Oc2ccccc2-c2cc(-n3c4ccc(-c5ccccc5)cc4c4cc(-c5ccccc5)ccc43)cc[n+]21
- fluorescence lifetime (in O=P(c1ccccc1)(c1ccccc1)c1ccccc1Oc1ccccc1P(=O)(c1ccccc1)c1ccccc1): 6.3 ns

Structure (SMILES): COCCOCCOCCN1C(=O)c2cc(NCCOCCO)c3c4c(cc(NCCOCCO)c(c24)C1=O)C(=O)N(CCOCCOCCOC)C3=O
- fluorescence lifetime (in CO): 8.2 ns
- fluorescence lifetime (in ClC(Cl)Cl): 9.6 ns
- fluorescence lifetime (in O): 4.3 ns

Structure (SMILES): CC1=C2c3ccccc3C(c3ccc[nH]3)=[N+]2[B-](F)(F)n2cccc21
- fluorescence lifetime (in ClCCl): 6.71 ns

Structure (SMILES): CCNc1cc2oc(=O)cc(C)c2cc1C
- fluorescence lifetime (in CC#N): 3.5 ns

Structure (SMILES): CCN1\C(=C/C=C/C=C/C2=[N+](CC)c3ccc4ccccc4c3C2(C)C)C(C)(C)c2c1ccc1ccccc21
- fluorescence lifetime (in C1CCOC1): 1.11 ns
- fluorescence lifetime (in CC#N): 0.85 ns
- fluorescence lifetime (in CC(C)=O): 0.96 ns
- fluorescence lifetime (in CCO): 0.93 ns
- fluorescence lifetime (in CN(C)C=O): 1.19 ns
- fluorescence lifetime (in CO): 0.76 ns
- fluorescence lifetime (in CS(C)=O): 1.31 ns
- fluorescence lifetime (in ClCCl): 1.3 ns

Structure (SMILES): CCN(CC)c1ccc(-c2cc3c(s2)c(C(=O)OC)cc(=O)n3C)cc1
- fluorescence lifetime (in ClCCl): 6.59 ns

Structure (SMILES): O=c1[nH]c(=O)c2nc3ccccc3nc2[nH]1
- fluorescence lifetime (in CC#N): 0.35 ns

Structure (SMILES): CCCN1C(=O)C(=CC=CC=C2Oc3ccccc3N2CCCS(=O)(=O)[O-])C(=O)N(CCC)C1=S
- fluorescence lifetime (in CC(C)=O): 0.854 ns
- fluorescence lifetime (in CCCCO): 0.821 ns
- fluorescence lifetime (in CCO): 0.465 ns
- fluorescence lifetime (in CO): 0.288 ns
- fluorescence lifetime (in ClC(Cl)Cl): 0.712 ns

Structure (SMILES): C=Cc1ccc(OC)c(OC)c1
- fluorescence lifetime (in C1CCCCC1): 3.3 ns
- fluorescence lifetime (in CC#N): 3.2 ns

Structure (SMILES): COc1ncccc1B(O)O
- fluorescence lifetime (in C1COCCO1): 0.415 ns
- fluorescence lifetime (in CC(C)O): 0.399 ns
- fluorescence lifetime (in CCCCCC): 0.211 ns
- fluorescence lifetime (in CCCCCCC): 0.253 ns
- fluorescence lifetime (in CCCCCCCC): 0.299 ns
- fluorescence lifetime (in CCCCCCCCO): 0.463 ns
- fluorescence lifetime (in CCO): 0.499 ns
- fluorescence lifetime (in CO): 1.57 ns

Second part, led by results:

- fluorescence lifetime [1]: 30 ns
Structure (SMILES): CC1(C)c2ccccc2N(c2ccc(-c3nc(C#N)c(C#N)nc3-c3ccc(N4c5ccccc5C(C)(C)c5ccccc54)cc3)cc2)c2ccccc21

- fluorescence lifetime (in ClCCl): 4.6 ns
Structure (SMILES): COc1ccc(C#Cc2c3cc4ccccc4cc3c(C#Cc3ccc(OC)cc3)c3cc4ccccc4cc23)cc1

- fluorescence lifetime (in ClCCl): 1.87 ns
Structure (SMILES): c1ccc2c(-n3c(-c4ccc(-c5ccc(-c6nc7c8ccccc8c8ccccc8c7n6-c6cccc7ccccc67)c6ccccc56)c5ccccc45)nc4c5ccccc5c5ccccc5c43)cccc2c1

- fluorescence lifetime (in ClCCl): 1.34 ns
Structure (SMILES): Cc1ccc(-c2cc(/C=C/c3ccc(N(c4ccccc4)c4ccccc4)cc3)c(-c3ccc(C)cc3)cc2/C=C/c2ccc(N(c3ccccc3)c3ccccc3)cc2)cc1

- fluorescence lifetime (in ClC(Cl)Cl): 11.2 ns
Structure (SMILES): CCCCCCN1C(=O)c2cc(-c3ccc(-n4c5ccccc5c5ccccc54)cc3)c(-c3ccc(-n4c5ccccc5c5ccccc54)cc3)cc2C1=O
- fluorescence lifetime (in c1ccc2c(c1)c1ccccc1n2-c1ccc(-c2ccc(-n3c4ccccc4c4ccccc43)cc2)cc1): 10 ns

- fluorescence lifetime [1]: 32 ns
Structure (SMILES): CC1(C)c2ccccc2N(c2ccc3nc4c5ccc(N6c7ccccc7C(C)(C)c7ccccc76)cc5c5cc(N6c7ccccc7C(C)(C)c7ccccc76)ccc5c4nc3c2)c2ccccc21

- fluorescence lifetime (in ClCCl): 4.69 ns
Structure (SMILES): COc1ccc(-c2cc3c(s2)c(-c2ccccc2)cc(=O)n3C)cc1

- fluorescence lifetime (in CCCCCC): 5 ns
Structure (SMILES): Cc1cc(C)c(B(c2c(C)cc(C)cc2C)c2cc3cccc4c(B(c5c(C)cc(C)cc5C)c5c(C)cc(C)cc5C)cc5cccc2c5c34)c(C)c1

- fluorescence lifetime (in C1CCCCC1): 7.3 ns
- fluorescence lifetime (in CC#N): 2.9 ns
- fluorescence lifetime (in CO): 2.6 ns
- fluorescence lifetime (in ClC(Cl)Cl): 0.3 ns
Structure (SMILES): CC1(C)CC(/N=C/c2ccc3ccc4cccc5ccc2c3c45)CC(C)(C)N1

- fluorescence lifetime (in ClCCl): 9 ns
Structure (SMILES): COc1ccc(N(c2ccccc2)c2ccc3ccc4c(N(c5ccccc5)c5ccc(OC)cc5)ccc5ccc2c3c54)cc1

- fluorescence lifetime [2]: 8.4 ns
Structure (SMILES): COc1ccc(-c2ccc3c(c2)c2cc(-c4ccc(OC)cc4)ccc2n3-c2ccc(C(=O)c3ccc4sc5ccccc5c4c3)nc2)cc1

- fluorescence lifetime [2]: 17 ns
Structure (SMILES): O=C(c1ccccc1)c1cc2ccc1CCc1ccc(cc1-c1ccc(N(c3ccccc3)c3ccccc3)cc1)CC2

- fluorescence lifetime (in ClCCl): 5.5 ns
Structure (SMILES): Fc1ccc(N(c2ccccc2)c2ccc3ccc4c(N(c5ccccc5)c5ccc(F)cc5)ccc5ccc2c3c54)cc1

- fluorescence lifetime (in CN(C)C=O): 0.95 ns
Structure (SMILES): CCCCCCCCC1(CCCCCCCC)c2cc(-c3ccc(C#N)cc3)ccc2-c2ccc(-c3ccc(C#N)cc3)cc21

- fluorescence lifetime (in C1CCOC1): 1.69 ns
Structure (SMILES): CN(C)c1ccc(C2=Nc3scc(-c4ccc(C#N)cc4)[n+]3[B-](F)(F)O2)cc1

- fluorescence lifetime (in ClC(Cl)Cl): 1.79 ns
Structure (SMILES): Cc1ccc(C2=Cc3ccc4ccccc4[n+]3[B-](F)(F)O2)cc1

- fluorescence lifetime (in ClC(Cl)Cl): 3.5 ns
Structure (SMILES): CN(C)c1ccc(-c2cc(-c3ccc(C#N)cc3)nc(-c3ccccc3)n2)cc1

- fluorescence lifetime (in c1ccccc1): 7.2 ns
Structure (SMILES): CN(C)c1ccc2ccc3oc(=O)c(-c4ccccc4)nc3c2c1

- fluorescence lifetime (in ClCCl): 12.1 ns
Structure (SMILES): COc1ccc(-c2c3ccccc3c(-c3ccc(OC)cc3)c3cc4ccccc4cc23)cc1
